This is an account of results in patent US10912815B2, “Inhibitors of mitochondrial fission and methods of use thereof” (The Board of Trustees of the Leland Stanford Junior …, priority 2011, dated 2021).

Entries after “also recorded” stand apart in the source; their conditions may differ. No end group written: not given here.

Assay [1] deals with SH-SY5Y cells. The assay is described as follows: Mitochondrial superoxide production in SH-SY5Y cells (MITOSOX red). It counts as cell-based, human. As to conditions: peptide 1 μM, MPP+ 2 mM 2 hrs, FIG. 6A, FIG. 7. As for the experimental part:
The effects of MPP+ or CCCP on translocation of Drp1 in the absence and presence of P110 was measured using confocal microscopy. Cultured SH-SY5Y cells in black 96-well plate were treated with Drp1 peptide inhibitor P110 (1 μM) 30 min prior to treatment of MPP+ (2 mM) or CCCP (5 uM). After 2 hrs of treatment, cells were stained with MITOSOX™ (red mitochondrial superoxide indicator) (5 uM, for 10 min, mitochondrial ROS) or TMRM (0.5 uM, for 20 min, MMP) at 37° C. For total ROS detection, cells were treated with MPP+ or CCCP for 24 hrs. ROS level was measured by CM-H2DCFDA (1 μM for 30 min, Invitrogen). Cells were washed with PBS for three times. The detection was performed in a fluorescence microplate reader (Tecan, Infinite M1000) according to manufacturer's instructions. Measurements were normalized to the cell number counted using Hoechst staining.
SH-SY5Y cells were treated with P110 (1 μM) followed by incubation of MPP+ (2 mM) for 2 hrs. Mitochondrial superoxide production was determined using the mitochondrial superoxide indicator, MITOSOX™ red (red mitochondrial superoxide indicator). Nuclei were stained with Hoechst (blue). This experiment included the analysis of P110 alanine-scan analogs, further determine the contribution of each of the amino acids of the P110 fission inhibitor peptide sequence on the bioactivity of the peptide.

The test system of assay [2] is isolated mouse liver mitochondria with Drp1 recombinant protein. The experiment in a line: Cytochrome c levels in isolated mouse liver mitochondria incubated with Drp1. As to conditions: 8 min of Drp1 incubation, FIG. 6D top. It counts as biochemical. How it is done: Mitochondrial membrane potential was also determined using TMRM (tetramethylrhodamine methylester). Fifty μg of mitochondria were incubated with recombinant Drp1 (50 ng) followed by incubation with TMRM (0.5 μM) in the presence or absence of P110 (1 μM) or NAC (2.5 mM). Fluoresence detection was performed using black 96-well plates in a fluorescence microplate reader at 560 nm excitation and 690 nm emission and potential was assessed by quenching of the fluorescent signal. The data are presented as mean±S.E. of percentage relative to control mitochondria from three independent experiments (FIG. 6B, #, p<0.05 vs. control cells; *, p<0.05; **, P<0.01 vs. MPP+- or CCCP-treated cells). Isolated mouse liver mitochondria (50 μg) were incubated with Drp1 recombinant protein (50 ng) in the presence or absence of P110 (1 μM). A kinetic change of mitochondrial superoxide production was determined by using MITOSOX™ (red mitochondrial superoxide indicator). […] Mitochondrial membrane potential of isolated mouse liver mitochondria was determined by TMRM, as described above, in the indicated groups. […] Protein levels of cytochrome c in the mitochondria were determined by western blot analysis with anti-cytochrome c antibodies in the indicated groups (insert, FIG. 6D). Total ROS production was determined by staining SH-SY5Y cells with CM2HDCFA (1 μM […] at 37° C.) in the indicated groups. […]

Assay [3] deals with SH-SY5Y cells. The experiment in a line: Autophagy marker LC3 in SH-SY5Y cells. It counts as cell-based, human. The following applies: MPP+. An excerpt: Autophagy is another consequence of excessive mitochondrial fission (Twig et al., 2008, EMBO J 27:433-446; Wikstrom et al., 2009, Int J Biochem Cell Biol 41:1914-1927). Autophagy can be measured by the induction of the autophagic marker LC3 (microtubule-associated protein 1, light chain 3, also known as ATG8). Cultured SH-SY5Y cells were stained by anti-LC3 antibodies and nuclei were stained by Hoechsts staining. A histogram (FIG. 9C) depicts the number of LC3-positive punctate/per cell in the indicated groups. The data are presented as the mean±S.E. of three independent experiments. Western blot analysis of LC3 I/II with anti-LC3 antibodies is shown and is presented as a histogram where the data are expressed as mean±S.E. of three independent experiments (FIG. 9D, left panel).

The next assay concerns the target Drp1/Fis1 interaction (Homo sapiens, UniProt O00429). The assay is described as follows: Drp1-Fis1 interaction in cultured SH-SY5Y neuronal cells (crosslink, immunoprecipitation). In kind it is cell-based. More on the design: endogenous in cells; host or cells: SH-SY5Y. The following applies: peptides 1 μM, FIG. 2E. How it is done: SH-SY5Y cells were treated with Drp1 peptides P110, P109, P112 or TAT47-57 only (1 μM). Because the interaction between Drp1 and Fis1 is transient and dynamic, cells were treated with the crosslinker, DSP, (0.75 mM for 30 min), as described in a previous study (Yoon et al., 2003, Mol Cell Biol 23:5409-5420). The cells were lysed in total cell lystes (50 mM Tris-HCl, pH 7.5, containing 150 mM NaCl, 1% Triton X-100, and protease inhibitor). Immunoprecipitates were analyzed by SDS-PAGE and immunoblotting with antibodies to Drp1, VDAC, and Fis1. VDAC was used as a loading control

Chain of Drp1/Fis1 interaction (O00429 whole entry): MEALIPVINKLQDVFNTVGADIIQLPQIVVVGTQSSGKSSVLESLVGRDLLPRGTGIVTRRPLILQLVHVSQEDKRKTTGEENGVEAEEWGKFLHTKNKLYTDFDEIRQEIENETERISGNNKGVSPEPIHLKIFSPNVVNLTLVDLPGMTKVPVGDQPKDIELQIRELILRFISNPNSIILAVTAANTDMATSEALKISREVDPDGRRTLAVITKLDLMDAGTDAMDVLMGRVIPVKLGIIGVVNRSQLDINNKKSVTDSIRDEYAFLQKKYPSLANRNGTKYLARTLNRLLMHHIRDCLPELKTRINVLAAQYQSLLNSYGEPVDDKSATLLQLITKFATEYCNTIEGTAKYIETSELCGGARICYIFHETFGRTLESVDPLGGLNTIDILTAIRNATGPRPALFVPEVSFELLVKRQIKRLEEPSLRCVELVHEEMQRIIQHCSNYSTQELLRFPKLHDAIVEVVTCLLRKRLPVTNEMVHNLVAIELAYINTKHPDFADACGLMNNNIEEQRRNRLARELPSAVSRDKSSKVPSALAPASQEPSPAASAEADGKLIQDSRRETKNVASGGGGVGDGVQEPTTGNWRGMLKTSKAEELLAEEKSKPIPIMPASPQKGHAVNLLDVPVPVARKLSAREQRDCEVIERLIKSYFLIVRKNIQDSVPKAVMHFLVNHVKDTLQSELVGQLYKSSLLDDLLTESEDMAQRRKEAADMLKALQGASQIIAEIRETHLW

In the case of “RRRQRRKKRGYGGDLLPRGS (RRRQRRKKRGYGGDLLPRGS-NH2) [P110, TAT47-57 carrier, GG linker, Drp1 region 110 (GTPase domain) peptide DLLPRGS; C-terminus C(O)-NH2]”, the “MPP+-induced production of mitochondrial superoxide” value with SH-SY5Y cells [1] is listed as “abolished”. In assay [2], the “cytochrome c release from the mitochondria” value is “inhibited cytochrome c release”. Also, in the assay on SH-SY5Y cells [3] (FIG. 9C), the “number of LC3-positive puncti in the cells” value was “reduced”. Further, the “LC3 cleavage (LC3 I to LC3 II)” value in the assay on SH-SY5Y cells [3] (FIG. 9D) is reported as “reduced”. The “Drp1-Fis1 interaction in cultured SH-SY5Y neuronal cells” value with Drp1/Fis1 interaction was “inhibited interaction of Drp1 and Fis1; also recorded: Inhibition”.
